Source: the supplement of paper PMC6045584
± gives the standard deviation of the averaged measurements.

Experiments:
[1] = compound: CCn1c(C(=O)N(C2CC2)C2CC2)cc2c3c(ncn3C)c(Nc3cc(C)n(C)n3)nc21; experiment: surviving fraction relative to DMSO-only wells; higher = less growth inhibition; conditions: exposure time: 5 days
In short: (§1)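 Continuous five-day exposure to inhibitors at 0.5, 1, 5, 10, 50, 100, 500 and 1000 nM started 24 hours after log-phase tumour cell lines were seeded at 250–500 cells per well in 384-well plates. Luminescence was read after 10 minutes at room temperature. Viability is given as surviving fraction, meaning CellTiter-Glo luminescence normalised to the median of DMSO-only wells.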

SORAFENIB = compound: CNC(=O)c1cc(Oc2ccc(NC(=O)Nc3ccc(Cl)c(C(F)(F)F)c3)cc2)ccn1 [SORAFENIB]; experiment: as above; conditions: exposure time: 5 days
In short: as §1

Row | Test System | surviving fraction ([1]; 0.5 nM) | surviving fraction ([1]; 1 nM) | surviving fraction ([1]; 5 nM) | surviving fraction ([1]; 10 nM) | surviving fraction ([1]; 50 nM) | surviving fraction ([1]; 100 nM) | surviving fraction ([1]; 500 nM) | surviving fraction ([1]; 1000 nM) | surviving fraction (SORAFENIB; 0.5 nM) | surviving fraction (SORAFENIB; 1 nM) | surviving fraction (SORAFENIB; 5 nM) | surviving fraction (SORAFENIB; 10 nM) | surviving fraction (SORAFENIB; 50 nM) | surviving fraction (SORAFENIB; 100 nM) | surviving fraction (SORAFENIB; 500 nM) | surviving fraction (SORAFENIB; 1000 nM)
1 | SG31 HEADNECK | 1.04 ± 0.069 | 1.02 ± 0.043 | 1.02 ± 0.12 | 0.875 ± 0.1 | 0.949 ± 0.13 | 1.08 ± 0.46 | 0.955 ± 0.16 | 0.961 ± 0.06 | 1.03 ± 0.11 | 1.1 ± 0.11 | 1.09 ± 0.092 | 1.08 ± 0.15 | 1.2 ± 0.31 | 1.07 ± 0.092 | 1.4 ± 0.22 | 1.22 ± 0.13
2 | SG32 HEADNECK | 0.996 ± 0.081 | 1.17 ± 0.013 | 1.22 ± 0.2 | 1.22 ± 0.25 | 0.95 ± 0.19 | 0.98 ± 0.12 | 1.02 ± 0.24 | 0.86 ± 0.022 | 1.2 ± 0.15 | 1.47 ± 0.68 | 1.33 ± 0.044 | 1.42 ± 0.35 | 1.76 ± 0.68 | 1.62 ± 0.26 | 1.53 ± 0.35 | 1.56 ± 0.36
3 | SG43 HEADNECK | 1.02 ± 0.22 | 1.02 ± 0.15 | 0.746 ± 0.015 | 0.935 ± 0.19 | 1.08 ± 0.27 | 0.767 ± 0.2 | 0.962 ± 0.31 | 0.784 ± 0.22 | 0.959 ± 0.085 | 1.19 ± 0.13 |  | 0.97 ± 0.082 | 1.18 ± 0.14 | 1.4 ± 0.095 | 1.98 ± 0.15 | 2.18 ± 0.21
4 | SIHA CERVIX | 0.868 ± 0.064 | 0.906 ± 0.052 | 0.991 ± 0.036 | 0.965 ± 0.041 | 1.04 ± 0.068 | 1.08 ± 0.057 | 0.983 ± 0.11 | 0.91 ± 0.078 | 1.04 ± 0.085 | 1.16 ± 0.11 | 1.089 ± 0.01 | 1.13 ± 0.077 |  | 1.15 ± 0.043 | 1.17 ± 0.16 | 1.17 ± 0.15
5 | SJSA1 BONE | 1.03 ± 0.041 | 1.01 ± 0.028 | 1.02 ± 0.028 | 1.01 ± 0.057 | 1.06 ± 0.021 | 1.07 ± 0.022 | 1.059 ± 0.007 | 1.05 ± 0.034 | 1.02 ± 0.012 | 0.969 ± 0.036 | 0.985 ± 0.048 |  | 1.07 ± 0.041 | 1.03 ± 0.041 | 1 ± 0.11 | 0.967 ± 0.026
6 | SKBR3 BREAST | 0.949 ± 0.15 | 1.07 ± 0.11 | 0.955 ± 0.11 | 1.04 ± 0.12 | 1.08 ± 0.12 | 1.1 ± 0.049 | 1.04 ± 0.081 | 0.999 ± 0.14 | 1.12 ± 0.15 | 1.07 ± 0.22 | 0.978 ± 0.087 | 0.951 ± 0.16 | 0.96 ± 0.16 | 0.95 ± 0.1 | 1.08 ± 0.23 | 1.1 ± 0.053
7 | SNU475 LIVER | 0.974 ± 0.012 | 0.957 ± 0.049 | 0.973 ± 0.025 | 0.989 ± 0.026 | 0.979 ± 0.051 | 0.959 ± 0.017 | 0.938 ± 0.0085 | 0.895 ± 0.039 | 1.08 ± 0.036 |  | 1.04 ± 0.03 | 1.05 ± 0.032 |  |  | 1.17 ± 0.031 | 1.07 ± 0.042
8 | SUM44 BREAST | 0.98 ± 0.056 | 1 ± 0.0096 | 1.04 ± 0.026 | 0.997 ± 0.086 | 1.03 ± 0.08 | 1.12 ± 0.025 | 1.02 ± 0.068 | 1.01 ± 0.057 | 1.03 ± 0.035 | 0.99 ± 0.041 | 1.03 ± 0.051 | 1.04 ± 0.053 | 1.12 ± 0.035 | 1.11 ± 0.044 |  | 0.974 ± 0.026
9 | SUM149 BREAST | 1.04 ± 0.093 | 1.05 ± 0.12 | 1.07 ± 0.059 | 1.06 ± 0.026 | 1.04 ± 0.05 | 1.04 ± 0.16 | 1.06 ± 0.037 | 1.1 ± 0.16 | 1.18 ± 0.028 | 1.09 ± 0.048 |  |  |  | 1.17 ± 0.051 |  | 1.278 ± 0.0084
10 | SUM149.B1*.S BREAST | 1.05 ± 0.053 | 0.99 ± 0.02 | 1.05 ± 0.014 | 1 ± 0.013 | 1.08 ± 0.045 | 1.11 ± 0.018 | 1.07 ± 0.011 | 1.08 ± 0.033 | 1.1 ± 0.025 | 1.051 ± 0.004 | 1.08 ± 0.05 | 1.05 ± 0.033 |  | 1.202 ± 0.0063 | 0.807 ± 0.024 | 0.609 ± 0.04
11 | SUM159 BREAST | 1.04 ± 0.063 | 0.972 ± 0.041 | 0.997 ± 0.012 | 0.873 ± 0.2 | 0.95 ± 0.12 | 0.965 ± 0.12 | 0.955 ± 0.13 | 0.959 ± 0.1 | 0.909 ± 0.23 | 0.956 ± 0.18 |  | 0.936 ± 0.18 | 0.997 ± 0.15 |  | 0.909 ± 0.28 | 0.071 ± 0.043
12 | SYO1 SYNOVIAL | 0.939 ± 0.069 | 0.927 ± 0.055 | 0.951 ± 0.027 | 0.917 ± 0.09 | 1.01 ± 0.051 | 0.97 ± 0.011 | 0.977 ± 0.045 | 0.98 ± 0.017 | 0.9613 ± 0.0017 | 1.02 ± 0.023 | 1.02 ± 0.045 | 0.981 ± 0.017 | 0.968 ± 0.025 | 0.912 ± 0.033 |  | 0.679 ± 0.022
13 | T47D BREAST | 1.02 ± 0.045 | 0.994 ± 0.066 | 1 ± 0.026 | 0.955 ± 0.024 | 1.04 ± 0.02 | 1.05 ± 0.014 | 1.04 ± 0.067 | 1.04 ± 0.006 | 1.083 ± 0.01 | 1.02 ± 0.028 | 1.07 ± 0.053 | 1.02 ± 0.046 | 1.14 ± 0.029 | 1.13 ± 0.018 | 1.149 ± 0.0045 | 1.12 ± 0.039
14 | U2OS BONE | 0.998 ± 0.025 | 1.03 ± 0.029 | 1.05 ± 0.023 | 1.02 ± 0.022 | 1.07 ± 0.053 | 1.077 ± 0.0072 | 1.03 ± 0.011 | 1.05 ± 0.013 | 1.01 ± 0.019 | 1.03 ± 0.027 | 1.06 ± 0.05 | 1.05 ± 0.029 | 1.08 ± 0.035 |  | 1.08 ± 0.016 | 1 ± 0.067
15 | VCAP PROSTATE | 0.98 ± 0.059 | 1.05 ± 0.12 | 1.15 ± 0.09 | 1.03 ± 0.051 | 1.11 ± 0.11 | 1.13 ± 0.18 | 1.06 ± 0.078 | 1.06 ± 0.092 | 1.13 ± 0.17 | 1.17 ± 0.11 | 1.19 ± 0.12 | 1.08 ± 0.053 | 1.12 ± 0.21 |  | 1.13 ± 0.16 | 1.02 ± 0.062
16 | VP229 BREAST | 0.983 ± 0.11 | 1.04 ± 0.14 | 1.02 ± 0.21 | 1.06 ± 0.14 | 1.15 ± 0.13 | 1.09 ± 0.12 | 1.23 ± 0.1 | 1.14 ± 0.034 | 0.934 ± 0.11 | 0.939 ± 0.05 | 1.06 ± 0.11 | 1 ± 0.11 | 1.21 ± 0.088 | 1.12 ± 0.17 | 1.31 ± 0.13 | 1.3 ± 0.028
17 | YAMATO SYNOVIAL | 1.22 ± 0.059 | 1.21 ± 0.076 | 1.234 ± 0.012 | 1.19 ± 0.027 | 1.4 ± 0.081 | 1.32 ± 0.15 | 1.327 ± 0.0092 | 1.14 ± 0.023 | 1.26 ± 0.054 | 1.24 ± 0.066 | 1.37 ± 0.096 | 1.26 ± 0.078 | 1.44 ± 0.096 | 1.35 ± 0.05 | 1.18 ± 0.088 | 1.04 ± 0.056
18 | ZR751 BREAST | 0.982 ± 0.19 | 0.864 ± 0.032 | 0.877 ± 0.11 | 0.99 ± 0.057 | 0.894 ± 0.095 | 0.8 ± 0.031 | 0.812 ± 0.027 | 0.772 ± 0.12 | 1.08 ± 0.086 | 1.04 ± 0.02 | 0.99 ± 0.056 | 1.02 ± 0.18 | 1.28 ± 0.042 | 1.31 ± 0.19 |  | 1.06 ± 0.072
